Data: ChEMBL document CHEMBL1128802, “Hydroxy-anthraquinones as antimalarial agents” (Bioorg Med Chem Lett, 1995)
pIC50: −log10 of the molar value.

Assays:
Plasmodium falciparum = test: In vitro inhibitory activity against Plasmodium falciparum D6; format: functional, organism-based
CFU-GM [1] = test: In vitro toxicity against human bone marrow stem cells (CFU-GM) in the absence (control); activity expressed as average colony count; format: functional, Bone element
CFU-GM [2] = test: In vitro toxicity against human bone marrow stem cells(CFU-GM) at a dose of 0.1 uM; activity expressed as average colony count; format: functional
CFU-GM [3] = test: In vitro toxicity against human bone marrow stem cells(CFU-GM) at a dose of 1.0 uM; activity expressed as average colony count; format: functional
CFU-GM [4] = test: In vitro toxicity against human bone marrow stem cells(CFU-GM) at a dose of 10.0 uM; activity expressed as average colony count; format: functional
CFU-GM [5] = test: In vitro toxicity against human bone marrow stem cells(CFU-GM) at a dose of 100.0 uM; activity expressed as average colony count; format: functional
CFU-GM [6] = test: In vitro toxicity against human bone marrow stem cells(CFU-GM) at a dose of 5.0 uM; activity expressed as average colony count; format: functional
CFU-GM [7] = test: In vitro toxicity against human bone marrow stem cells(CFU-GM) in the absence (control); activity expressed as average colony count; format: functional

SMILES | pIC50 (Plasmodium falciparum) | further results
COc1cc2c(cc1OC)C(=O)c1cc(OC)c(OC)cc1C2=O | ≤ 5.30 | 
O=C1c2c(O)c(O)c(O)c(O)c2C(=O)c2c(O)c(O)c(O)c(O)c21 | 6.10 | 
COc1cc2c(c(OC)c1OC)C(=O)c1cc(OC)c(OC)c(OC)c1C2=O | ≤ 5.30 | 
COc1c(OC)c(OC)c2c(c1OC)C(=O)c1c(OC)c(OC)c(OC)c(OC)c1C2=O | ≤ 5.30 | 
O=C1c2c(O)c(O)c(O)c(Br)c2C(=O)c2c(O)c(O)c(O)c(Br)c21 | 5.30 | 
COc1c(Br)c2c(c(OC)c1OC)C(=O)c1c(Br)c(OC)c(OC)c(OC)c1C2=O | ≤ 5.30 | 
O=C1c2cc(O)c(O)cc2C(=O)c2cc(O)c(O)cc21 | 6.52 | 
O=C1c2cc(O)c(O)c(O)c2C(=O)c2cc(O)c(O)c(O)c21 | 7.46 | Average colony count (CFU-GM [1]): 56; Average colony count (CFU-GM [2]): 61; Average colony count (CFU-GM [3]): 57; Average colony count (CFU-GM [4]): 36; Average colony count (CFU-GM [5]): 5; Average colony count (CFU-GM [6]): 47
O=C1c2ccc(O)cc2C(=O)c2ccc(O)cc21 [ANTHRAFLAVICACID] | < 6.00 | 
O=C1c2ccccc2C(=O)c2ccccc21 [ANTHRAQUINONE] | 5.30 | 
O=C1c2cccc(O)c2C(=O)c2cccc(O)c21 [ANTHRARUFIN] | < 6.00 | 
CCN(CC)CCCC(C)Nc1ccnc2cc(Cl)ccc12 (centres undefined) [CHLOROQUINE] |  | Average colony count (CFU-GM [2]): 56; Average colony count (CFU-GM [3]): 54; Average colony count (CFU-GM [4]): 48; Average colony count (CFU-GM [5]): 5; Average colony count (CFU-GM [6]): 54; Average colony count (CFU-GM [7]): 56
O=C1c2ccccc2C(=O)c2c(O)c(O)cc(O)c21 [PURPURIN] | < 6.00 | 
